{
  "source": "ChEMBL document CHEMBL1649095",
  "about": "“A κ Opioid Pharmacophore Becomes a Spinally Selective κ-δ Agonist When Modified with a Basic Extender Arm” (2011)",
  "key": {"Mus musculus [1]": {"system": "Mus musculus", "assay": "Antinociceptive activity in intrathecally dosed HSD:ICR(CD1) mouse by tail flick test", "assay_type": "functional"}, "Mus musculus [2]": {"system": "Mus musculus", "assay": "Antinociceptive activity in icv dosed HSD:ICR(CD1) mouse by tail flick test", "assay_type": "functional"}, "Mus musculus [3]": {"system": "Mus musculus", "assay": "Potency index, ratio of antinociceptive ED50 in icv dosed HSD:ICR(CD1) mouse to antinociceptive ED50 in intrathecally dosed HSD:ICR(CD1) mouse", "assay_type": "functional"}, "HEK293 [4]": {"system": "HEK293", "assay": "Selectivity for kappa/delta opioid receptor expressed in HEK293 cells over kappa/mu opioid receptor expressed in HEK293 cells by intracellular calcium release assay", "assay_type": "cell-based"}, "Mus musculus [5]": {"system": "Mus musculus", "assay": "Ratio of antinociceptive ED80 in intrathecally dosed HSD:ICR(CD1) mouse coadministered with 2.5 nmol kappa opioid receptor antagonist norBNI to ED80 in intrathecally dosed HSD:ICR(CD1) mouse", "assay_type": "functional"}, "HEK293 [6]": {"system": "HEK293", "assay": "Selectivity for kappa/delta opioid receptor expressed in HEK293 cells over mu opioid receptor expressed in HEK293 cells by intracellular calcium release assay", "assay_type": "cell-based"}, "Mus musculus [7]": {"system": "Mus musculus", "assay": "Ratio of antinociceptive ED80 in intrathecally dosed HSD:ICR(CD1) mouse coadministered with 5 nmol delta opioid receptor antagonist NTI to ED80 in intrathecally dosed HSD:ICR(CD1) mouse", "assay_type": "functional"}, "HEK293 [8]": {"system": "HEK293", "assay": "Selectivity for kappa/delta opioid receptor expressed in HEK293 cells over mu/delta opioid receptor expressed in HEK293 cells by intracellular calcium release assay", "assay_type": "cell-based"}, "HEK293 [9]": {"system": "HEK293", "assay": "Selectivity for kappa/delta opioid receptor expressed in HEK293 cells over kappa opioid receptor expressed in HEK293 cells by intracellular calcium release assay", "assay_type": "cell-based"}, "[10]": {"biological_target": "Opioid receptors; delta & kappa (Homo sapiens) (UniProt P41145+P41143)", "sequence (P41143 whole entry, looked up)": "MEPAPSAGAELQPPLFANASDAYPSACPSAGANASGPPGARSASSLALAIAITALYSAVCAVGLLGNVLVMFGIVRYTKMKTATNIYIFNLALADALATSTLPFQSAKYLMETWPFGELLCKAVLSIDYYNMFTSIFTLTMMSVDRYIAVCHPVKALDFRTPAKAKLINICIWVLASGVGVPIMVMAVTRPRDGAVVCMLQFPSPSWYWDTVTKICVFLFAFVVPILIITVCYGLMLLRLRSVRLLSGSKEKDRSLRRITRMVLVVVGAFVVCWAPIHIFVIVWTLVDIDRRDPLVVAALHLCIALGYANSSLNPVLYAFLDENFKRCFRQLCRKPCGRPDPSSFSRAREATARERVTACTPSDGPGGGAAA", "sequence (P41145 whole entry, looked up)": "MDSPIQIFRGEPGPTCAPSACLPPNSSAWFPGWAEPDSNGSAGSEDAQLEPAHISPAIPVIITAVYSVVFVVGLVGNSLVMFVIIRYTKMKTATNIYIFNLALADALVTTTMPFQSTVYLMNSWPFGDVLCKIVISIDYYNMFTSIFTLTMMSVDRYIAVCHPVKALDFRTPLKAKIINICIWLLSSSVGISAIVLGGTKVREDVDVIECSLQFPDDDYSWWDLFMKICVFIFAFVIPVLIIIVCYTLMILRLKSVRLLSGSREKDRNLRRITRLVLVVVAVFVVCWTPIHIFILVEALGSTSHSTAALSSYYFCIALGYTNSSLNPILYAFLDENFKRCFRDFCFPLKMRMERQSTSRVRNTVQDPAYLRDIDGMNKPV", "assay": "Agonist activity at kappa/delta opioid receptor expressed in HEK293 cells coexpressing chimeric Giiq protein assessed as stimulation of intracellular calcium", "assay_type": "functional, cell-based"}},
  "note": "Calls of active or inactive are those of the source. The rule behind the calls is not given here.",
  "data": [
    {"smiles": "CNCCCCNC(=O)COCC(=O)NCC(=O)Nc1cccc([C@@H](CN2CCCC2)N(C)C(=O)Cc2ccc(Cl)c(Cl)c2)c1", "values": [
      {"measurement": "ED50", "setting": "Mus musculus [1]", "value": 0.17, "unit": "nmol"},
      {"measurement": "ED50", "setting": "Mus musculus [2]", "value": 0.48, "unit": "nmol"},
      {"measurement": "Ratio ED50", "setting": "Mus musculus [3]", "value": 2.81}
    ]},
    {"smiles": "CNCCNC(=O)COCC(=O)NCC(=O)NCC(=O)NCC(=O)Nc1cccc([C@@H](CN2CCCC2)N(C)C(=O)Cc2ccc(Cl)c(Cl)c2)c1", "values": [
      {"measurement": "ED50", "setting": "Mus musculus [1]", "value": 0.035, "unit": "nmol"},
      {"measurement": "ED50", "setting": "Mus musculus [2]", "value": 0.4, "unit": "nmol"},
      {"measurement": "Ratio ED50", "setting": "Mus musculus [3]", "value": 11.43}
    ]},
    {"smiles": "CNCCCCNC(=O)COCC(=O)Nc1cccc([C@@H](CN2CCCC2)N(C)C(=O)Cc2ccc(Cl)c(Cl)c2)c1", "values": [
      {"measurement": "ED50", "setting": "Mus musculus [1]", "value": 0.15, "unit": "nmol"},
      {"measurement": "ED50", "setting": "Mus musculus [2]", "value": 0.52, "unit": "nmol"},
      {"measurement": "Ratio ED50", "setting": "Mus musculus [3]", "value": 3.45}
    ]},
    {"smiles": "CN(C(=O)Cc1ccc(Cl)c(Cl)c1)[C@H](CN1CCCC1)c1cccc(NC(=O)CNC(=O)CNC(=O)COCC(=O)NCCCNC=O)c1", "values": [
      {"measurement": "ED50", "setting": "Mus musculus [1]", "value": 0.02, "unit": "nmol"},
      {"measurement": "ED50", "setting": "Mus musculus [2]", "value": 0.47, "unit": "nmol"},
      {"measurement": "Ratio ED50", "setting": "Mus musculus [3]", "value": 23.44}
    ]},
    {"smiles": "CNCCCNC(=O)COCC(=O)NCC(=O)NCC(=O)Nc1cccc([C@@H](CN2CCCC2)N(C)C(=O)Cc2ccc(Cl)c(Cl)c2)c1", "values": [
      {"measurement": "Selectivity ratio", "setting": "HEK293 [4]", "value": 66},
      {"measurement": "ED50", "setting": "Mus musculus [1]", "value": 0.0045, "unit": "nmol"},
      {"measurement": "Ratio", "setting": "Mus musculus [5]", "value": 28.5},
      {"measurement": "Selectivity ratio", "setting": "HEK293 [6]", "value": 66},
      {"measurement": "ED50", "setting": "Mus musculus [2]", "value": 0.58, "unit": "nmol"},
      {"measurement": "Ratio", "setting": "Mus musculus [7]", "value": 9.97},
      {"measurement": "Selectivity ratio", "setting": "HEK293 [8]", "value": 66},
      {"measurement": "Selectivity ratio", "setting": "HEK293 [9]", "value": 66},
      {"measurement": "Ratio ED50", "setting": "Mus musculus [3]", "value": 130.91},
      {"measurement": "Activity", "setting": "[10]", "value": "Active"}
    ]}
  ]
}
